Measured values from publication PMC6599972, “Inhibition of host NOX1 blocks tumor growth and enhances checkpoint inhibitor–based immunotherapy” (Life Science Alliance, 2019).

How the values were obtained:
[1] = target: T1, NOX4 (Homo sapiens, UniProt Q9NPH5); assay: Amplex Red/HRP ROS production assay on membranes of NOX4-overexpressing cells, concentration-response; type: biochemical
T1 construct: membranes prepared from cells specifically overexpressing the human NOX isoform
T1 sequence (Q9NPH5 1-578): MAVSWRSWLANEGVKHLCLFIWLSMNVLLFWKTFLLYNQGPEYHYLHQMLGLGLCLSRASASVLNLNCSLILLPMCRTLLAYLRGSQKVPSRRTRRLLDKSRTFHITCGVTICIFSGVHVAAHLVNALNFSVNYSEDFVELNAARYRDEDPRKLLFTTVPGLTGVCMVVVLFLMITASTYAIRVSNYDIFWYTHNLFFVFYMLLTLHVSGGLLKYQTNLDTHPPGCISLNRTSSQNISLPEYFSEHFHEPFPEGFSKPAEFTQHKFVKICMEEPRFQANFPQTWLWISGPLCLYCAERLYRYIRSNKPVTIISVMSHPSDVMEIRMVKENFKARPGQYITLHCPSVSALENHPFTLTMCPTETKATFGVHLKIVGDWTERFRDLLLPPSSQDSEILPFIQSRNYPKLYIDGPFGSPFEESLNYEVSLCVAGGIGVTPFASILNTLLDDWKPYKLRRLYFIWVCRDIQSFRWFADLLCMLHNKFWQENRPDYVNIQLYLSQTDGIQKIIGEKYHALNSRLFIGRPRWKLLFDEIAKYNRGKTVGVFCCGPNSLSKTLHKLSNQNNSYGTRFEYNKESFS

[2] = target: T2, NOX1 (Homo sapiens, UniProt Q9Y5S8); assay: Amplex Red/HRP ROS production assay on membranes of NOX1-overexpressing cells, concentration-response; type: biochemical
T2 construct: membranes prepared from cells specifically overexpressing the human NOX isoform
T2 sequence (Q9Y5S8 1-564): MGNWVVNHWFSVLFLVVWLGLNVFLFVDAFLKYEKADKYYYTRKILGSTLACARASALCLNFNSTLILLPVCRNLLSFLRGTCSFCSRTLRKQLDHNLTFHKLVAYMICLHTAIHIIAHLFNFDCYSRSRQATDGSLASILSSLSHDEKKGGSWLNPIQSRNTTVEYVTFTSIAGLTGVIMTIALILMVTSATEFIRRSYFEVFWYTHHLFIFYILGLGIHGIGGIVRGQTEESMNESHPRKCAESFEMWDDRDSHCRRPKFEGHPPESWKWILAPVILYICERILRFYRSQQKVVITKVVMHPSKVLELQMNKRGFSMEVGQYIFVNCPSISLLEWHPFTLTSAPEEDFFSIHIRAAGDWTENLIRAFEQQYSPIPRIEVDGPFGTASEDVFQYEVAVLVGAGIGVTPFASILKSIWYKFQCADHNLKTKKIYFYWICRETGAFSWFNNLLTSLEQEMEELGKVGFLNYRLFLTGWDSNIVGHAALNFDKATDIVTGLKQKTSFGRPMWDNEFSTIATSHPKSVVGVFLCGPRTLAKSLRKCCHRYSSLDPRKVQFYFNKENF

## GKT771
[1]
  Ki: 4 µM
[2]
  Ki: 0.06 ± 0.006 µM
